From article PMC11879098, “Phycocyanobilin Binding and Specific Amino Acid Residues Near The Chromophore Contribute To Orange Light Perception By The Dualchrome Phytochrome Region” (Plant and Cell Physiology, 2024)

How the values were obtained:
AtPhyB = target: T1, AtPhyB (Arabidopsis thaliana, UniProt P14713); experiment: co-expression with SyHO1 and ΔN_PpPcyA in E. coli, UV-vis absorption, Zn fluorescence, acid denaturation; type: binding; conditions: covalent; pH 7.5
T1 construct: gene PHYB; His-tagged, E. coli C41, band about 70 kDa, so a truncated photosensory region
T1 sequence (P14713 1-624 limits assumed): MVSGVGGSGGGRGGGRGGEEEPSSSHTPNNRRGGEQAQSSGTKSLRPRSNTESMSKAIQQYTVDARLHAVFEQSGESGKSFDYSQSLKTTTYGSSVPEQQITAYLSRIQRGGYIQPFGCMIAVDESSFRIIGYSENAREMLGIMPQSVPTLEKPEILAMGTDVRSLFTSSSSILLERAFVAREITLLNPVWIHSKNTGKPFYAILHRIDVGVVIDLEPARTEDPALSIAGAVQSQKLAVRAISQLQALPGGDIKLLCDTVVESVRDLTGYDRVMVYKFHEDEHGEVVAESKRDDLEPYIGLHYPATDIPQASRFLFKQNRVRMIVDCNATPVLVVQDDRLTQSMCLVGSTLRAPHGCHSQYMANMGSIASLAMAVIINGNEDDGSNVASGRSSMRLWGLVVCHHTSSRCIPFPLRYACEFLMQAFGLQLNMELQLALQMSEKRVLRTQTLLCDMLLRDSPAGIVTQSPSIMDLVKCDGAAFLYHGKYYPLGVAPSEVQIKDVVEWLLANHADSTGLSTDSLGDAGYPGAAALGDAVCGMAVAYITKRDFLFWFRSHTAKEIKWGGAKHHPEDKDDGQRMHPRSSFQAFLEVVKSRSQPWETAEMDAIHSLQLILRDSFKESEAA

[1] = target: T2, PpDUC1-N (dualchrome 1 phytochrome region) (Pycnococcus provasolii, UniProt A0A830HT85); experiment: expression in PΦB-producing E. coli, UV-vis absorption; type: binding; conditions: covalent; difference spectrum; possibly data of Makita et al. 2021 shown again
T2 construct: gene PPROV_000692100; N-terminal phytochrome region (includes GAF and PHY domains) of the phytochrome-cryptochrome fusion; His-tagged, E. coli C41, about 75 kDa
T2 sequence (A0A830HT85 entry or part of it): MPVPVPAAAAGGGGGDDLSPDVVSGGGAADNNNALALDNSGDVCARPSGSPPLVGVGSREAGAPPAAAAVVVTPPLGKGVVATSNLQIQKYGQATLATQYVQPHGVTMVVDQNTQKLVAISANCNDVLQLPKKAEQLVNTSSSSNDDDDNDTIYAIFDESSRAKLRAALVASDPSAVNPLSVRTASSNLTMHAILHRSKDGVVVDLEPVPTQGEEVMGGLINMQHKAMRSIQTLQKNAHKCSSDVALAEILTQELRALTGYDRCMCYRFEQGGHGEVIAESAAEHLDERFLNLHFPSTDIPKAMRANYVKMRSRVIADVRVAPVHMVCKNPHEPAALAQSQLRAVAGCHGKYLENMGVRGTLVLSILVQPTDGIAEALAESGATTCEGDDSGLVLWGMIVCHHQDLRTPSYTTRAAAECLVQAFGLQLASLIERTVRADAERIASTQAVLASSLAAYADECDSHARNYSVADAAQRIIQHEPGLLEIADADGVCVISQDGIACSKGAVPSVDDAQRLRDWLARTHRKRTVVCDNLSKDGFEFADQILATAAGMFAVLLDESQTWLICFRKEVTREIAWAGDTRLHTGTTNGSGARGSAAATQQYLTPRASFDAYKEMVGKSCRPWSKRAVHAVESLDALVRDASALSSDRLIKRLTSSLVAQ

SMILES	co-expression with SyHO1 and ΔN_PpPcyA in E. coli, UV-vis absorption, Zn fluores (AtPhyB)	expression in PΦB-producing E. coli, UV-vis absorption [1]
CC=C1C(=Cc2[nH]c(C=C3N=C(C=C4NC(=O)C(CC)=C4C)C(C)=C3CCC(=O)O)c(CCC(=O)O)c2C)NC(=O)C1C (centres unmarked) [PCB]	difference spectrum of AtPhyB coexpressed with ΔN_PpPcyA was nearly identical to that of PCB-binding AtPhyB	–
C=CC1=C(C)C(=CC2=NC(=Cc3[nH]c(C=C4NC(=O)C(C)C4=CC)c(C)c3CCC(=O)O)C(CCC(=O)O)=C2C)NC1=O (centres unmarked) [PΦB]	–	difference spectrum of PpDUC1-N purified from PCB-producing and PΦB-producing E. coli
